In publication PMC7944402, “Resin-acid derivatives bind to multiple sites on the voltage-sensor domain of the Shaker potassium channel” (The Journal of General Physiology, 2021):
Values joined by “and” are separate entries in the source; they are usually repeats but may differ in a detail not shown here. Identical values can stand only once.

Tests used:
[1] = biological target: T1, Shaker KV channel R362Q/R365Q/W454A/F280I (Drosophila melanogaster, UniProt P08510, DEL6-46/F280I/R362Q/R365Q/W454A); assay: Two-electrode voltage clamp in Xenopus oocytes: R362Q/R365Q/W454A/F280I; assay type: cell-based; conditions: 100 μM, pH 9.0, R362Q/R365Q/W454A/F280I
T1 construct: expressed in transfected cells; host or cells: Xenopus laevis oocytes (RNA injection)
T1 sequence (P08510 other isoform, or with tags, fused parts or gaps DEL6-46/F280I/R362Q/R365Q/W454A): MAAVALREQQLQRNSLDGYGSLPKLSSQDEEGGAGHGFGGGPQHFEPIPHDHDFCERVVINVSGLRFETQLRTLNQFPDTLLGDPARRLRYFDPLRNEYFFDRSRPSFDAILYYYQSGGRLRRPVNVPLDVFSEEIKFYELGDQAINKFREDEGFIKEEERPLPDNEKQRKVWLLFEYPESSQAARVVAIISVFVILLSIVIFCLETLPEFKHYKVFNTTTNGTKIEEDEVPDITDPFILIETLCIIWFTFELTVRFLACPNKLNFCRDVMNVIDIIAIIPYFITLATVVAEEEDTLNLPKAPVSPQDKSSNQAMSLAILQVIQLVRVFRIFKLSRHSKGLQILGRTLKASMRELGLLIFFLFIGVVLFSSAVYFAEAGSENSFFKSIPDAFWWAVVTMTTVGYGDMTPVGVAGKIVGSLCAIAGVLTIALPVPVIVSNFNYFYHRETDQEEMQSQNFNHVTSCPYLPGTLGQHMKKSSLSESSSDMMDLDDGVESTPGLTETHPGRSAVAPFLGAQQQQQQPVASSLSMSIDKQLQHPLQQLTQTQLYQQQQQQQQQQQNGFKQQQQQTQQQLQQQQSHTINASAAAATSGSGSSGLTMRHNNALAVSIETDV
Excerpt: (§1) The Shaker H4 channel (GenBank accession no. NM_167595.3; [Kamb et al., 1987]), with removed N-type inactivation due to a Δ6-46 deletion (ShH4IR, in Bluescript II KS(+) plasmid; [Hoshi et al., 1990]), is referred to as the WT Shaker KV channel. Addition of two positively charged arginines (M356R/A359R) at the extracellular top of the voltage sensor increases the effect of charged lipophilic compounds ([Ottosson et al., 2014], [2015], [2017]). […] However, for the resin-acid derivatives studied in the present investigation, R362 reduced the effect. Therefore, we specifically refer to the two added arginines just outside S4 (M356R/A359R) as the 2R motif. […]
(§2) Electrophysiological experiments were made 1–6 d after RNA injection. K^+ currents were measured with the two-electrode voltage-clamp technique (GeneClamp 500B amplifier; Axon Instruments) as described previously ([Ottosson et al., 2015]; [Silverå Ejneby et al., 2018]). […]
(§3) The conductance, G(V), was calculated as G(V)=I/(V−VK), (1) where I is the steady-state current measured at the end of each test-voltage sweep (100 ms after onset; Clampfit 10.5; Molecular Devices), V is the absolute membrane voltage, and VK is the reversal potential for K^+ ions (set to −80 mV). […] The resin-acid–induced G(V) shift was calculated as V1/2 (compound) − V1/2 (control). The relative change in GMAX was calculated as GMAX (compound) / GMAX (control). […]

[2] = biological target: T2, Shaker KV channel M356R/A359R/R362Q/W454A (Drosophila melanogaster, UniProt P08510, A359R/DEL6-46/M356R/R362Q/W454A); assay: Two-electrode voltage clamp in Xenopus oocytes: 2R motif/R362Q/W454A; assay type: cell-based; conditions: 100 μM, pH 9.0, M356R/A359R/R362Q/W454A
T2 construct: expressed in transfected cells; host or cells: Xenopus laevis oocytes (RNA injection)
T2 sequence (P08510 with tags, fused parts or gaps DEL6-46/M356R/A359R/R362Q/W454A): as the sequence (P08510 other isoform, or with tags, fused parts or gaps DEL6-46/F280I/R362Q/R365Q/W454A) above, with I239F, M315R, A318R, Q324R counted along it
Excerpt: as §1, §2, §3

[3] = biological target: T3, Shaker KV channel R362Q/W454A (Drosophila melanogaster, UniProt P08510, DEL6-46/R362Q/W454A); assay: Two-electrode voltage clamp in Xenopus oocytes: R362Q/W454A; assay type: cell-based; conditions: 100 μM, pH 9.0, R362Q/W454A
T3 construct: expressed in transfected cells; host or cells: Xenopus laevis oocytes (RNA injection)
T3 sequence (P08510 with tags, fused parts or gaps DEL6-46/R362Q/W454A): as the sequence (P08510 other isoform, or with tags, fused parts or gaps DEL6-46/F280I/R362Q/R365Q/W454A) above, with I239F, Q324R counted along it
Excerpt: as §1, §2, §3

[4] = test system: Shaker KV channel binding sites (S3/S4, S4/pore, residual); assay: Additive model of site contributions to the G(V) shift (least squares fit); design: species or system Drosophila melanogaster
Excerpt: We also considered a reduced dataset of five mutants for Wu50 to make the comparison between the two compounds equitable (Table S1).
The G(V) shift for each mutant was expressed as a sum of contribution from the various sites: ΔVmodel=ΔVS3/S4+ΔVS4/pore+ΔVResidual, (4) where ΔVS3/S4 is the G(V) shift due to compound binding to the S3/S4 site, ΔVS4/pore is the G(V) shift due to compound binding to the S4/pore site, and ΔVResidual is the G(V) shift due to compound binding to other sites, including the top-VSD site.
Following the assumptions based on observations made using MD simulations, ΔVS3/S4 was set to 0 if the 2R motif was missing (i.e., in the WT channel), ΔVS4/pore could adopt one of four values depending on the type of mutation (R362/W454 = WT configuration, R362Q, W454A, or R362Q/W454A), and ΔVResidual was assumed to be the same for all mutants.
The model further assumed that there is a residual effect that can be due to binding to the VSD-top site or to any other unidentified site and that the contributions due to binding to the S3/S4 site and the S4/pore site depend upon mutations at this site.

[5] = biological target: T4, Shaker KV channel M356R/A359R/R362Q (Drosophila melanogaster, UniProt P08510, A359R/DEL6-46/M356R/R362Q); assay: Two-electrode voltage clamp in Xenopus oocytes: 2R motif/R362Q; assay type: cell-based
T4 construct: expressed in transfected cells; host or cells: Xenopus laevis oocytes (RNA injection)
T4 sequence (P08510 other isoform, or with tags, fused parts or gaps DEL6-46/M356R/A359R/R362Q): as the sequence (P08510 other isoform, or with tags, fused parts or gaps DEL6-46/F280I/R362Q/R365Q/W454A) above, with I239F, M315R, A318R, Q324R, A413W counted along it
Excerpt: The Shaker H4 channel (GenBank accession no. NM_167595.3; [Kamb et al., 1987]), with removed N-type inactivation due to a Δ6-46 deletion (ShH4IR, in Bluescript II KS(+) plasmid; [Hoshi et al., 1990]), is referred to as the WT Shaker KV channel. Addition of two positively charged arginines (M356R/A359R) at the extracellular top of the voltage sensor increases the effect of charged lipophilic compounds ([Ottosson et al., 2014], [2015], [2017]). […] However, for the resin-acid derivatives studied in the present investigation, R362 reduced the effect. Therefore, we specifically refer to the two added arginines just outside S4 (M356R/A359R) as the 2R motif. Mutations were introduced with site-directed mutagenesis and verified with sequencing as described previously ([Börjesson et al., 2010]). RNA injection and oocyte handling were performed as before ([Börjesson et al., 2010]; [Ottosson et al., 2015]). All animal experiments were approved by the Linköping’s local Animal Care and Use Committee.
Electrophysiological experiments were made 1–6 d after RNA injection. K^+ currents were measured with the two-electrode voltage-clamp technique (GeneClamp 500B amplifier; Axon Instruments) as described previously ([Ottosson et al., 2015]; [Silverå Ejneby et al., 2018]). The amplifier’s leak compensation was used, and the currents were low-pass filtered at 5 kHz. The control solution contained (in mM) 88 NaCl, 1 KCl, 15 HEPES, 0.4 CaCl2, and 0.8 MgCl2, and pH was set with NaOH. All experiments were made at room temperature (20°C–23°C). The holding potential was set to −80 mV (or −100 mV if the mutant was not fully closed at −80 mV).
Stock solutions were stored at −20°C and diluted in control solution just before experiments. The test solution was added to the oocyte bath manually with a syringe. […] To make sure all Wu50 molecules were negatively charged, the pH of the control solution was set to 9.0 before the experiments. This pH change had only small effects on channel kinetics and the G(V) relation.
The conductance, G(V), was calculated as G(V)=I/(V−VK), (1) where I is the steady-state current measured at the end of each test-voltage sweep (100 ms after onset; Clampfit 10.5; Molecular Devices), V is the absolute membrane voltage, and VK is the reversal potential for K^+ ions (set to −80 mV). […] The resin-acid–induced G(V) shift was calculated as V1/2 (compound) − V1/2 (control). The relative change in GMAX was calculated as GMAX (compound) / GMAX (control). The concentration dependence for the G(V) shifts was calculated as ΔV= ΔVMAX/(1 +EC50/c), (3) where ΔV is the voltage shift, ΔVMAX is the voltage shift at saturating concentration, c is the concentration of the tested compound, and EC50 is the concentration at which half-maximum response occurs.

[6] = 100 μM, pH 9.0, M356R/A359R/R362Q

Compound: C[C@@]1(C(=O)O)CCC[C@]2(C)c3cc(Cl)c(Cl)c(Cl)c3CC[C@@H]12 [Wu50]
- GMAX (rel.) [1]: 0.05 rel.
- GMAX (rel.) [2]: 1.50 rel.
- ΔVG(V) (G(V) shift) [2]: −56.6 ± 5.8 mV and -56.6 mV
- GMAX (rel.) [3]: 1.28 rel.
- ΔVG(V) (G(V) shift) [3]: −41.0 ± 4.4 mV and -41.0 mV
- ΔVS3/S4 (contribution of the S3/S4 site in the presence of the 2R mutations) ([4]; eight mutants): −17 mV
- ΔVS4/pore, R362Q configuration ([4]; eight mutants): −34 mV
- ΔVS4/pore, R362Q/W454A configuration ([4]; eight mutants): −31 mV
- ΔVS4/pore, WT S4/pore site ([4]; eight mutants): −15 mV
- ΔVS3/S4 (contribution of the S3/S4 site in the presence of the 2R mutations) ([4]; five mutants): −10 mV
- ΔVS4/pore, R362Q configuration ([4]; five mutants): −37 mV
- ΔVS4/pore, WT S4/pore site ([4]; five mutants): −18 mV
- ΔVResidual (contribution of other sites to the G(V) shift) ([4]; five mutants (Wu50 constrained to be the same as for eight mutants)): −10 mV
- ΔVS4/pore, W454A configuration ([4]; no clear difference between five-mutants and eight-mutants datasets): +2 to −6 mV
- G(V) shift, representative recording (Fig. 4 B) ([5]; 100 µM, pH 9.0, 2R motif/R362Q): −59.0 mV
- GMAX (rel.) [5, 6]: 1.93 rel.
- ΔVG(V) (G(V) shift) [5, 6]: −54.0 ± 2.3 mV and -54.0 mV
